Measured values reported in patent US9221809B2 (MERCK SHARP & DOHME CORP., priority 2011, dated 2015).
Structures can show the parent of a compound that is named as a salt.

The molecules below were run against IRAK4 (Homo sapiens (Human), UniProt Q9NWZ3) (assay: IRAK4 kinase activity, IMAP fluorescence polarization assay). Details: 100 μM ATP, 0.5 nM GST tagged IRAK4; read-out: IRAK4 IC50.
Type: biochemical
Outline: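 GST-tagged IRAK4 at 0.5 nM phosphorylates 100 nM fluorescent peptide substrate with 100 μM ATP in pH 7.2 Tris buffer containing MgCl2, DTT and Tween 20, 30 min at 25 °C. Reaction stopped with IMAP binding reagent; phosphorylation read as increased fluorescence polarization.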

Chain of IRAK4 (Q9NWZ3 whole entry): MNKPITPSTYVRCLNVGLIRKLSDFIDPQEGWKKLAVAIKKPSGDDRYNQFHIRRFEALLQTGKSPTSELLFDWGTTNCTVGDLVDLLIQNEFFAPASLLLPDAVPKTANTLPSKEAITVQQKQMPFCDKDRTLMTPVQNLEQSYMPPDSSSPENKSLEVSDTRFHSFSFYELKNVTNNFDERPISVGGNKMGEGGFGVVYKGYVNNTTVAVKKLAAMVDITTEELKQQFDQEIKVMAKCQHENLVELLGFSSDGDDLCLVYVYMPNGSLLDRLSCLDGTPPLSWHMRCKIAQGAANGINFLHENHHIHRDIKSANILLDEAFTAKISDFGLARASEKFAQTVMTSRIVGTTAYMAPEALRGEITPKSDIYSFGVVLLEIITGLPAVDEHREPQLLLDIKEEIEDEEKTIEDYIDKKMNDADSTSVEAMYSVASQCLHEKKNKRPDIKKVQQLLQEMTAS

IC50	Structure (SMILES)
5.6 nM	CS(=O)(=O)N1CC2(CN(c3nc(N[C@@H]4C[C@H](CO)[C@@H](O)[C@H]4O)c(-c4nc5ccccc5s4)c(=O)[nH]3)C2)C1 [Example 14, 5-(Benzo[d]thiazol-2-yl)-6-((1R,2S,3R,4R)-2,3-dihydroxy-4-(hydroxymethyl)cyclopentylamino)-2-(6-(methylsulfonyl)-2,6-diazaspiro[3.3]heptan-2-yl)pyrimidin-4(3H)-one.HCl]
2000 nM	O=c1[nH]c(NC2CCNC2)nc(N[C@@H]2C[C@H](CO)[C@@H](O)[C@H]2O)c1-c1nc2ccccc2s1 (stereo partly drawn) [Example 37, 5-(Benzo[d]thiazol-2-yl)-6-(((1R,2S,3R,4R)-2,3-dihydroxy-4-(hydroxymethyl)cyclopentyl)amino)-2-(pyrrolidin-3-ylamino)pyrimidin-4(3H)-one.HCl]
8.9 nM	O=c1[nH]c(N2CC3(COC3)C2)nc(N[C@@H]2C[C@H](CO)[C@@H](O)[C@H]2O)c1-c1nc2ccccc2s1 [Example 13, 5-(Benzo[d]thiazol-2-yl)-6-((1R,2S,3R,4R)-2,3-dihydroxy-4-(hydroxymethyl)cyclopentylamino)-2-(2-oxa-6-azaspiro[3.3]heptan-6-yl)pyrimidin-4(3H)-one.HCl]
872 nM	Cc1ccc(-c2c(N[C@@H]3CCCNC3)nc(N3CCOCC3)[nH]c2=O)nc1 [Example 110, (R)-5-(5-methylpyridin-2-yl)-2-morpholino-6-(piperidin-3-ylamino)pyrimidin-4(3H)-one]
12 nM	O=c1[nH]c(N2CCOCC2)nc(N[C@@H]2CCCNC2)c1-c1nc2cnccc2s1 [Example 113, (R)-2-morpholino-6-(piperidin-3-ylamino)-5-(thiazolo[4,5-c]pyridin-2-yl)pyrimidin-4(3H)-one.HCl]
135 nM	O=c1[nH]c(N2CCC(F)(F)CC2)nc(N[C@@H]2C[C@H](CO)[C@@H](O)[C@H]2O)c1-c1nc2ccccc2s1 [Example 27, 5-(Benzo[d]thiazol-2-yl)-2-(4,4-difluoropiperidin-1-yl)-6-(((1R,2S,3R,4R)-2,3-dihydroxy-4-(hydroxymethyl)cyclopentyl)amino)pyrimidin-4(3H)-one.HCl]
9 nM	O=c1[nH]c(N2CCOCC2)nc(N[C@@H]2CCCNC2)c1-c1nc2c(C3CC3)nccc2s1 [Example 111, (R)-5-(4-cyclopropylthiazolo[4,5-c]pyridin-2-yl)-2-morpholino-6-(piperidin-3-ylamino)pyrimidin-4(3H)-one.HCl]
620 nM	O=c1[nH]c(N2CCOCC2)nc(N[C@H]2CCNC2)c1-c1nc2ccccc2s1 [Example 86, (S)-5-(Benzo[d]thiazol-2-yl)-2-morpholino-6-(pyrrolidin-3-ylamino)pyrimidin-4(3H)-one.HCl]
10 nM	NC(=O)c1ccc2sc(-c3c(N[C@@H]4CCCNC4)nc(N4CCOCC4)[nH]c3=O)nc2c1 [Example 347, (R)-2-(2-morpholino-6-oxo-4-(piperidin-3-ylamino)-1,6-dihydropyrimidin-5-yl)benzo[d]thiazole-5-carboxamide]
60 nM	COCCCNc1nc(N[C@@H]2C[C@H](CO)[C@@H](O)[C@H]2O)c(-c2nc3ccccc3s2)c(=O)[nH]1 [Example 40, 5-(Benzo[d]thiazol-2-yl)-6-(((1R,2S,3R,4R)-2,3-dihydroxy-4-(hydroxymethyl)cyclopentyl)amino)-2-((3-methoxypropyl)amino)pyrimidin-4(3H)-one HCl]
70 nM	O=c1[nH]c(N2CCOCC2)nc(N[C@@H]2CCCNC2)c1-c1nc2cc(C(F)(F)F)ccc2s1 [Example 337, 2-(morpholin-4-yl)-6-[[(3R)-piperidin-3-yl]amino]-5-[5-(trifluoromethyl)-1,3-benzothiazol-2-yl]-3,4-dihydropyrimidin-4-one]
9.5 nM	O=c1[nH]c(N2CCOCC2)nc(N[C@@H]2C[C@H](CO)[C@@H](O)[C@H]2O)c1-c1ccc2ccccc2n1 [Example 18, 6-((1R,2S,3R,4R)-2,3-Dihydroxy-4-(hydroxymethyl)cyclopentylamino)-2-morpholino-5-(quinolin-2-yl)pyrimidin-4(3H)-one.HCl]
67 nM	O=c1[nH]c(N2CCC2)nc(N[C@@H]2C[C@H](CO)[C@@H](O)[C@H]2O)c1-c1nc2ccccc2s1 [Example 31, 2-(Azetidin-1-yl)-5-(benzo[d]thiazol-2-yl)-6-(((1R,2S,3R,4R)-2,3-dihydroxy-4-(hydroxymethyl)cyclopentyl)amino)pyrimidin-4(3H)-one.HCl]
5.6 nM	O=c1[nH]c(N2CCOCC2)nc(N[C@@H]2C[C@H](CO)[C@@H](O)[C@H]2O)c1-c1nc(-c2ccc(F)cc2)cs1 [Example 58, 6-(((1R,2S,3R,4R)-2,3-Dihydroxy-4-(hydroxymethyl)cyclopentyl)amino)-5-(4-(4-fluorophenyl)thiazol-2-yl)-2-morpholinopyrimidin-4(3H)-one.HCl]

Same assay, conditions: 100 μM ATP; read-out: IC50

IC50	Structure (SMILES)
21 nM	O=c1[nH]c(N2CCN(c3ncccn3)CC2)nc(N[C@@H]2CCCNC2)c1-c1nc(-c2ccc(F)cc2)cs1 [Example 350, 5-[4-(4-fluorophenyl)-1,3-thiazol-2-yl]-6-[[(3R)-piperidin-3-yl]amino]-2-[4-(pyrimidin-2-yl)piperazin-1-yl]-3,4-dihydropyrimidin-4-one; trifluoroacetic acid]
280 nM	CC1CCCCN1c1nc(N[C@@H]2CCCNC2)c(-c2nc3ccccc3s2)c(=O)[nH]1 (stereo partly drawn) [Example 314]
2000 nM	CCN1CCCC1CNc1nc(N2CCOCC2)[nH]c(=O)c1-c1nc2ccccc2s1 (stereo not drawn) [Example 255, 5-(1,3-benzothiazol-2-yl)-6-[[(1-ethylpyrrolidin-2-yl)methyl]amino]-2-(morpholin-4-yl)-3,4-dihydropyrimidin 4-one]
21 nM	O=c1[nH]c(N2CCC3(CCN(c4ccccc4)C3)C2)nc(N[C@@H]2CCCNC2)c1-c1nc2ccccc2s1 (stereo partly drawn) [Example 334, 5-(1,3-benzothiazol-2-yl)-2-[7-phenyl-2,7-diazaspiro[4.4]nonan-2-yl]-6-[[(3R)-piperidin-3-yl]amino]-3,4-dihydropyrimidin-4-one]
89 nM	O=c1[nH]c(C2CCN(c3cccnc3)CC2)nc(N[C@@H]2CCCNC2)c1-c1nc2ccccc2s1 [Example 245, (R)-5-(benzo[d]thiazol-2-yl)-6-(piperidin-3-ylamino)-2-(1-(pyridin-3-yl)piperidin-4-yl)pyrimidin-4(3H)-one]
185 nM	O=c1[nH]c(N2CCOCC2)nc(N[C@@H]2CCCNC2)c1-c1cccc(-n2cccc2)n1 [Example 215, (R)-5-(6-(1H-pyrrol-1-yl)pyridin-2-yl)-2-morpholino-6-(piperidin-3-ylamino)pyrimidin-4(3H)-one]
359 nM	C[C@H]1C[C@@H](Nc2nc(N3CCOCC3)[nH]c(=O)c2-c2nc3ccccc3s2)CN1 [Example 209, 5-(benzo[d]thiazol-2-yl)-6-(((3R,5S)-5-methylpyrrolidin-3-yl)amino)-2-morpholinopyrimidin-4(3H)-one]
210 nM	CC(C)S(=O)(=O)N1CCC(c2nc(N[C@@H]3CCCNC3)c(-c3nc4ccccc4s3)c(=O)[nH]2)CC1 [Example 237, 5-(1,3-benzothiazol-2-yl)-6-[[(3R)-piperidin-3-yl]amino]-2-[1-(propane-2-sulfonyl)piperidin-4-yl]-3,4-dihydropyrimidin-4-one]
5620 nM	N#Cc1ccnc(-c2c(N[C@@H]3CCCNC3)nc(N3CCOCC3)[nH]c2=O)c1 [Example 222, (R)-2-(2-morpholino-6-oxo-4-(piperidin-3-ylamino)-1,6-dihydropyrimidin-5-yl)isonicotinonitrile]

Same assay, conditions: 100 μM ATP; read-out: IRAK4 IC50

IC50	Structure (SMILES)
14 nM	COc1ccc(OC)c(N2CCN(c3nc(N[C@@H]4CCCNC4)c(-c4nc5ccccc5s4)c(=O)[nH]3)CC2)c1 [Example 161, (R)-5-(benzo[d]thiazol-2-yl)-2-(4-(2,5-dimethoxyphenyl)piperazin-1-yl)-6-(piperidin-3-ylamino)pyrimidin-4(3H)-one]
42 nM	CC(C)(O)C1CCN(c2nc(N[C@@H]3CCCNC3)c(-c3ccc4ccccc4n3)c(=O)[nH]2)C1 (stereo partly drawn) [Example 184, 2-(3-(2-hydroxypropan-2-yl)pyrrolidin-1-yl)-6-((R)-piperidin-3-ylamino)-5-(quinolin-2-yl)pyrimidin-4(3H)-one]
6 nM	O=c1[nH]c(N2CCN(c3cccnc3)CC2)nc(N[C@@H]2CCCNC2)c1-c1nc2ccccc2s1 [Example 138, (R)-5-(benzo[d]thiazol-2-yl)-6-(piperidin-3-ylamino)-2-(4-(pyridin-3-yl)piperazin-1-yl)pyrimidin-4(3H)-one]
8 nM	O=c1[nH]c(N2CCN(c3ccc(Cl)cn3)CC2)nc(N[C@@H]2CCCNC2)c1-c1nc2ccccc2s1 [Example 144, (R)-5-(benzo[d]thiazol-2-yl)-2-(4-(5-chloropyridin-2-yl)piperazin-1-yl)-6-(piperidin-3-ylamino)pyrimidin-4(3H)-one]
18 nM	O=c1[nH]c(N2CC(O)(C(F)(F)F)C2)nc(N[C@@H]2CCCNC2)c1-c1ccc2ccccc2n1 [Example 170, (R)-2-(3-hydroxy-3-(trifluoromethyl)azetidin-1-yl)-6-(piperidin-3-ylamino)-5-(quinolin-2-yl)pyrimidin-4(3H)-one]

Same assay, conditions: unit inferred; 100 μM ATP; read-out: IRAK4 IC50

IC50	Structure (SMILES)
119 nM	O=c1[nH]c(N2CCC(Cn3cccn3)CC2)nc(N[C@@H]2C[C@H](CO)[C@@H](O)[C@H]2O)c1-c1nc2ccccc2s1 [Example 80, 2-(4-((1H-pyrazol-1-yl)methyl)piperidin-1-yl)-5-(benzo[d]thiazol-2-yl)-6-((1R,2S,3R,4R)-2,3-dihydroxy-4-(hydroxymethyl)cyclopentylamino)pyrimidin-4(3H)-one]
17.9 nM	CS(=O)(=O)C1CN(c2nc(N[C@@H]3C[C@H](CO)[C@@H](O)[C@H]3O)c(-c3nc4ccccc4s3)c(=O)[nH]2)C1 [Example 71, 5-(benzo[d]thiazol-2-yl)-6-((1R,2S,3R,4R)-2,3-dihydroxy-4-(hydroxymethyl)cyclopentylamino)-2-(3-(methylsulfonyl)azetidin-1-yl)pyrimidin-4(3H)-one]
